In patent publication US10131652B2, “Pyrimidinyloxy benzene derivatives as herbicides” (E. I. DU PONT DE NEMOURS AND COMPANY, priority 2014, dated 2018):

How the values were obtained:
Format in all cases: in vivo
[1] = system: giant foxtail (Setaria faberii); assay: Test B pre-/postemergence plant response
Procedure, shortened: (§1)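 Scoring used a 0–100 scale (100 = complete control) by visual comparison with untreated plants after approximately 10 days in the greenhouse. Compounds, in surfactant-containing non-phytotoxic solvent, were sprayed onto soil at planting or onto 2–10 cm seedlings.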

corn (Zea mays) = assay: Test B pre-/postemergence plant response
Procedure, shortened: as §1

[2] = system: large (Lg) crabgrass (Digitaria sanguinalis); assay: Test B pre-/postemergence plant response
Procedure, shortened: as §1

[3] = system: pigweed (Amaranthus retroflexus); assay: Test B pre-/postemergence plant response
Procedure, shortened: as §1

[4] = system: velvetleaf (Abutilon theophrasti); assay: Test B pre-/postemergence plant response
Procedure, shortened: as §1

[5] = system: wheat (Triticum aestivum); assay: Test B pre-/postemergence plant response
Procedure, shortened: as §1

[6] = system: morningglory (Ipomoea spp.); assay: Test B pre-/postemergence plant response
Procedure, shortened: as §1

[7] = system: barnyardgrass (Echinochloa crus-galli); assay: Test B pre-/postemergence plant response
Procedure, shortened: as §1

[8] = system: ducksalad (Heteranthera limosa); assay: Test C flooded paddy test plant response; details: Flood, 250 g ai/ha; scale of 0 to 100 where 0 is no effect and 100 is complete control; 13 to 15 days
Procedure, shortened: (§2)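 Water-applied treatment: compounds go directly into floodwater standing 3 cm over the soil of pots holding 2-leaf-stage plants. Depth is kept constant; plants stay in a greenhouse 13 to 15 days before visual comparison with controls on a 0–100 scale.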

[9] = system: small-flower umbrella sedge (Cyperus difformis); assay: Test C flooded paddy test plant response; details: Flood, 250 g ai/ha; scale of 0 to 100 where 0 is no effect and 100 is complete control; 13 to 15 days
Procedure, shortened: as §2

rice (Oryza sativa) = assay: Test C flooded paddy test plant response; details: Flood, 250 g ai/ha; scale of 0 to 100 where 0 is no effect and 100 is complete control; 13 to 15 days
Procedure, shortened: as §2

[10] = system: barnyardgrass (Echinochloa crus-galli); assay: Test C flooded paddy test plant response; details: Flood, 250 g ai/ha; scale of 0 to 100 where 0 is no effect and 100 is complete control; 13 to 15 days
Procedure, shortened: as §2

[11] = 125 g ai/ha, postemergence, 0 to 100 scale, 0 no effect, 100 complete control
[12] = Postemergence, 500 g ai/ha, 0 to 100 scale (0 no effect, 100 complete control)
[13] = Preemergence, 125 g ai/ha, 0 to 100 scale where 0 is no effect and 100 is complete control
[14] = Preemergence, 500 g ai/ha, 0 to 100 scale (0 no effect, 100 complete control)

| Compound | Plant response rating, Foxtail, Giant [1, 11] | Plant response rating, Foxtail, Giant [1, 12] | Plant response rating, Foxtail, Giant [1, 13] | Plant response rating, Foxtail, Giant [1, 14] | Plant response rating, Corn (corn (Zea mays); [11]) | Plant response rating, Corn (corn (Zea mays); [12]) | Plant response rating, Corn (corn (Zea mays); [13]) | Plant response rating, Corn (corn (Zea mays); [14]) | Plant response rating, Crabgrass, Large [2, 11] | Plant response rating, Crabgrass, Large [2, 12] | Plant response rating, Crabgrass, Large [2, 13] | Plant response rating, Crabgrass, Large [2, 14] | Plant response rating, Pigweed [3, 11] | Plant response rating, Pigweed [3, 12] | Plant response rating, Pigweed [3, 13] | Plant response rating, Pigweed [3, 14] | Plant response rating, Velvetleaf [4, 11] | Plant response rating, Velvetleaf [4, 12] | Plant response rating, Velvetleaf [4, 13] | Plant response rating, Velvetleaf [4, 14] | other results |
| --- | --- | --- | --- | --- | --- | --- | --- | --- | --- | --- | --- | --- | --- | --- | --- | --- | --- | --- | --- | --- | --- |
| Clc1cnc(Oc2ccccc2-c2nccc(Cl)n2)nc1 [Compound 18] | 0 | 0 | 0 | 10 | 0 | 0 | 0 | 0 | 0 | 0 | 0 | 20 | 0 | 0 | 0 | 30 | 0 | 0 | 0 | 0 | Plant response rating, Wheat [5, 11]: 0; Plant response rating, Wheat [5, 12]: 0; Plant response rating, Wheat [5, 13]: 0; Plant response rating, Wheat [5, 14]: 0; Plant response rating, Morningglory [6, 11]: 0; Plant response rating, Morningglory [6, 12]: 0; Plant response rating, Morningglory [6, 13]: 0; Plant response rating, Morningglory [6, 14]: 0; Plant response rating, Barnyardgrass [7, 11]: 0; Plant response rating, Barnyardgrass [7, 12]: 0; Plant response rating, Barnyardgrass [7, 13]: 0; Plant response rating, Barnyardgrass [7, 14]: 0; Ducksalad plant response rating [8]: 0; Sedge, Umbrella plant response rating [9]: 0; Rice plant response rating (rice (Oryza sativa)): 0; Barnyardgrass plant response rating [10]: 0 |
| FC(F)(F)c1cccc(-c2ccccc2Oc2ncc(Cl)cn2)n1 [Compound 19] | 0 | 0 | 0 | 70 | 0 | 0 | 0 | 0 | 0 | 0 | 0 | 50 | 0 | 0 | 0 | 20 | 0 | 0 | 0 | 0 | Plant response rating, Wheat [5, 11]: 0; Plant response rating, Wheat [5, 12]: 0; Plant response rating, Wheat [5, 13]: 0; Plant response rating, Wheat [5, 14]: 0; Plant response rating, Morningglory [6, 11]: 0; Plant response rating, Morningglory [6, 12]: 0; Plant response rating, Morningglory [6, 13]: 0; Plant response rating, Morningglory [6, 14]: 0; Plant response rating, Barnyardgrass [7, 11]: 0; Plant response rating, Barnyardgrass [7, 12]: 0; Plant response rating, Barnyardgrass [7, 13]: 0; Plant response rating, Barnyardgrass [7, 14]: 0; Ducksalad plant response rating [8]: 0; Sedge, Umbrella plant response rating [9]: 0; Rice plant response rating (rice (Oryza sativa)): 0; Barnyardgrass plant response rating [10]: 0 |
| FC(F)(F)c1nccc(-c2ccccc2Oc2ncc(Cl)cn2)n1 [Compound 20] | 0 | 20 | 10 | 60 | 0 | 0 | 0 | 0 | 0 | 20 | 10 | 70 | 40 | 90 | 0 | 20 | 0 | 30 | 0 | 20 | Plant response rating, Wheat [5, 11]: 0; Plant response rating, Wheat [5, 12]: 0; Plant response rating, Wheat [5, 13]: 0; Plant response rating, Wheat [5, 14]: 0; Plant response rating, Morningglory [6, 11]: 0; Plant response rating, Morningglory [6, 12]: 50; Plant response rating, Morningglory [6, 13]: 0; Plant response rating, Morningglory [6, 14]: 0; Plant response rating, Barnyardgrass [7, 11]: 0; Plant response rating, Barnyardgrass [7, 12]: 0; Plant response rating, Barnyardgrass [7, 13]: 0; Plant response rating, Barnyardgrass [7, 14]: 0; Ducksalad plant response rating [8]: 0; Sedge, Umbrella plant response rating [9]: 0; Rice plant response rating (rice (Oryza sativa)): 0; Barnyardgrass plant response rating [10]: 0 |
